Like-named read-outs stand apart in the source and are kept apart here. Values belong to the compound of their own block, whether it stands above or below them.
Legend:
recombinant mouse BCO1 = target: T1, recombinant mouse BCO1 (Mus musculus, UniProt Q9JJS6); experiment: In vitro inhibition of recombinant mouse BCO1 activity; type: biochemical
T1 construct: His-tag; made in house; host or cells: E. coli
T1 sequence (Q9JJS6 1-566): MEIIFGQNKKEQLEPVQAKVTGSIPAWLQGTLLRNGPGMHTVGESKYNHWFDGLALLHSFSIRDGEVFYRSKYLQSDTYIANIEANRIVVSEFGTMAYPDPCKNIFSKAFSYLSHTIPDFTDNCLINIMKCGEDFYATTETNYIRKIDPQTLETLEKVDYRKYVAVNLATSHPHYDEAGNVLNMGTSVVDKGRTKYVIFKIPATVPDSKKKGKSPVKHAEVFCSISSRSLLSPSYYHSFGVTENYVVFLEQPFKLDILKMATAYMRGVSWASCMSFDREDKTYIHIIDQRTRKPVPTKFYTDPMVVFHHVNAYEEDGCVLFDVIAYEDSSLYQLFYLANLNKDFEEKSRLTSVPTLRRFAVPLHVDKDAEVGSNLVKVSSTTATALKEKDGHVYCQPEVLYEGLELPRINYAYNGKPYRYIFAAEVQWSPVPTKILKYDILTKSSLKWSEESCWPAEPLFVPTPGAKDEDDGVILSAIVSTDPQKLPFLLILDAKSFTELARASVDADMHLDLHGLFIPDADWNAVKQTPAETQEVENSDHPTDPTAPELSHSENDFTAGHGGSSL
Source text: Recombinant His-tag mouse BCO1 was produced in E.coli and purified using Talon CellThru (Clontech Labs, Inc., Mountain View, CA) resin as described previously. β-carotene was delivered in 1% octylthioglucoside. […] All other inhibitors were delivered in ethanol. […] The final concentration of ethanol in all samples was 1%. […] Data plotted as means±standard deviation; n = 3; […] Analysis was done in C57BL/6 wt (3 animals) and Bco1^-/- mice (13 animals).

RARβ = target: T2, RARβ (Homo sapiens, UniProt P10826); experiment: GeneBLAzer RAR-beta DA assay, antagonist mode (competition with at-RA); type: cell-based; conditions: for competition with all-trans-retinoic acid: at-RA 0.5–1.5 nM, tested 10^−5 to 10^−9 M
T2 sequence (P10826 183-417 limits assumed): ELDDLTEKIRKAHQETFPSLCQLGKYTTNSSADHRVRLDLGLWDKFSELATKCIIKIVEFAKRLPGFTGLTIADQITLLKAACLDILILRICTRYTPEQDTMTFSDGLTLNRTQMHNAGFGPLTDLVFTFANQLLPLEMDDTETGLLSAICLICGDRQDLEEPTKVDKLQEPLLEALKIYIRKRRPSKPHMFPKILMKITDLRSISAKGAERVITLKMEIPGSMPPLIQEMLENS
Description: The potency of agonists and antagonists was measured by GeneBLAzer RAR-beta DA Assay Kit (ThermoFisher Scientific) according to the manufacturer’s recommendations.
The phenylretinamides may have the ability to modulate the expression of proteins and induce cell apoptosis via RAR-dependent and -independent pathways. […] Additionally, apoptosis of neuroblastoma cell lines was blocked by two retinoic acid receptor (RAR)-β/γ-specific antagonists, but not by a RARα-specific antagonist. […] However, in this case the specific RARα-specific antagonist AGN194301 could block fenretinde-induced apoptosis. […] Human retina-derived cells in culture show differences in expression of RAR receptors. […] Clonetics HRPE primary human cells specifically express only RARβ [50].
Fluorescence was measured at excitation (ex) 409 nm/emission (em) 460 and at ex 409nm/em 530 nm and the ratio was determined and plotted against a range of concentrations (10^−5 to 10^−9 M) of the tested compounds.

effect on BCO1 activity (recombinant mouse BCO1; inhibitor 0–200 μM): does not affect BCO1 activity
competition with all-trans-retinoic acid (RARβ): cannot compete
Structure (SMILES): O=C(O)c1ccccc1NC(=O)N1CCC(c2ccccc2C(F)(F)F)CC1 [A1120]

Structure (SMILES): CC1=C(/C=C/C(C)=C/C=C/C(C)=C/C(=O)Nc2ccc(O)cc2)C(C)(C)CCC1 [fenretinide, N-[4-hydroxyphenyl]retinamide]
IC50 (RARβ; competition with 1 nM at-RA): 10 µM

Structure (SMILES): COc1ccc(NC(=O)/C=C(C)/C=C/C=C(C)/C=C/C2=C(C)CCCC2(C)C)cc1 [MPR, N-[4-methoxyphenyl]retinamide]
IC50 (recombinant mouse BCO1; 20 μM β-carotene, enzyme preincubated with inhibitor 10 min at 4°C, read-out: IC50 BCO1): 5 µM
competition with all-trans-retinoic acid (RARβ): cannot compete

Structure (SMILES): CC1=C(/C=C/C(C)=C/C=C/C(C)=C/C(=O)Nc2ccc(O)cc2)C(C)(C)CCC1=O [3-keto-HPR, 4-oxo-N-(4-hydroxyphenyl)retinamide]
IC50 (recombinant mouse BCO1): 4 µM

From article PMC5407626 (PLoS ONE, 2017)
